Consider 4 molecules from patent US10442833B1 (KING SAUD UNIVERSITY, priority 2018, dated 2019).

What is called IC50 is the midpoint of a concentration-inhibition curve.

In brackets after ≈: the same amount, converted by molar mass.

For experiment [1], the system named is Staphylococcus epidermidis (RCMB 010024). In words: Agar well diffusion, Staphylococcus epidermidis. The settings on record: Reference Drug, 30 μg/mL; well diameter 6 mm; 37° C., 18 to 24 h; in mm. The experiment is classed as cell-based. The procedure: (§1) Antimicrobial tests were carried out by agar well diffusion according to the National Committee for Clinical Laboratory Standards (NCCLS) criteria. […] Then, 100 μl of 10% tested sample was added to the wells, while 10% DMSO was used as the negative control. […] Each test was performed in triplicate and the average of the results was calculated. The extraction solvents were used as negative controls (NCCLS, 2002; 2004).

In experiment [2] the test system is Streptococcus pyogenes (RCMB 010015). The experiment is described as follows: Agar well diffusion, Streptococcus pyogenes. The settings on record: Reference Drug, 30 μg/mL; well diameter 6 mm; 37° C., 18 to 24 h; in mm. The experiment is classed as cell-based. The protocol: as §1
For orientation: Agar diffusion results depend on both activity and mobility in agar.

For experiment [3], the system named is Staphylococcus aureus (RCMB 010027). The experiment is described as follows: Agar well diffusion, Staphylococcus aureus. The format is cell-based. To be noted: Reference Drug, 30 μg/mL; well diameter 6 mm; 37° C., 18 to 24 h; in mm. The protocol: as §1
In experiment [4] the test system is Hela cells. The settings on record: reported by Al-Massarani et al., Molecules 2017; cited from earlier work.
The test system of experiment [5] is MDA (breast cancer cells). To be noted: reported by Al-Massarani et al., Molecules 2017; cited from earlier work.
In experiment [6] the test system is A549 cells. To be noted: reported by Al-Massarani et al., Molecules 2017; cited from earlier work.
Experiment [7] deals with Geotricum candidum (RCMB 05007). In words: Agar well diffusion, Geotricum candidum. The settings on record: Reference Drug, 30 μg/mL; well diameter 6 mm; 37° C., 18 to 24 h. The format is cell-based. The procedure:
(§2) Antimicrobial tests were carried out by agar well diffusion according to the National Committee for Clinical Laboratory Standards (NCCLS) criteria.
(§3) Bacterial and fungal suspensions were prepared at 0.5 McFarland standard turbulence in a volume of 100 μL and were cultivated on Mueller-Hinton agar and Sabouraud dextrose media punched with 6-mm diameter wells for the bacteria and fungi, respectively. Then, 100 μl of 10% tested sample was added to the wells, while 10% DMSO was used as the negative control. Ampicillin, gentamicin, and amphotericin B (30 μg/mL) were used as standard agents against the Gram-positive bacteria, Gram-negative bacteria, and fungi, respectively. After incubation of the plates at 37° C. for 18 to 24 h, the antimicrobial activity was evaluated by measuring the diameter of the inhibition zones. Each test was performed in triplicate and the average of the results was calculated. The extraction solvents were used as negative controls (NCCLS, 2002; 2004).

The subject of experiment [8] is Candida albicans (RCMB). In words: Agar well diffusion, Candida albicans. The settings on record: Reference Drug, 30 μg/mL; well diameter 6 mm; 37° C., 18 to 24 h. The experiment is classed as cell-based. The protocol: as §2, §3
For experiment [9], the system named is Absidia corymbifera (RCMB 02564). In words: Agar well diffusion, Absidia corymbifera. The format is cell-based. The settings on record: Reference Drug, 30 μg/mL; well diameter 6 mm; 37° C., 18 to 24 h. The protocol: as §2, §3
For experiment [10], the system named is Klebsiella pneumoniae (RCMB 0010093). In words: Agar well diffusion, Klebsiella pneumoniae. The format is cell-based. The settings on record: Reference Drug, 30 μg/mL; well diameter 6 mm; 37° C., 18 to 24 h; in mm. The procedure: as §1
Experiment [11] relates to Salmonella enteritidis (RCMB 010084). The experiment is described as follows: Agar well diffusion, Salmonella enteritidis. The experiment is classed as cell-based. The settings on record: Reference Drug, 30 μg/mL; well diameter 6 mm; 37° C., 18 to 24 h; in mm. The procedure:
as §1

Experiment [12] relates to Proteous vulgaris (RCMB 010085). In words: Agar well diffusion, Proteous vulgaris. The experiment is classed as cell-based. The settings on record: Reference Drug, 30 μg/mL; well diameter 6 mm; 37° C., 18 to 24 h; in mm. The protocol:
as §1

For `CC1(C)S[C@@H]2[C@H](NC(=O)[C@H](N)c3ccccc3)C(=O)N2[C@H]1C(=O)O` [Ampicillin], the “Zone of Inhibition” value in experiment [1] is on record as 25.0; in experiment [2], 26.3; in [3] it was 27.3.
As to `C[C@H]1[C@H](C)CC[C@]2(C(=O)O)CC[C@]3(C)C(=CC[C@@H]4[C@@]5(C)CC[C@H](O)C(C)(C)[C@@H]5CC[C@]43C)[C@H]12` [ursolic acid], the IC50 in experiment [4] is 50.2 mg/L (≈ 110 µM); in experiment [5], 47.76 mg/L (≈ 105 µM); in experiment [6], 65.2 mg/L (≈ 143 µM).
Consider `C[C@@H]1[C@H](O)[C@@H](C)/C=C/C=C/C=C/C=C/C=C/C=C/C=C/[C@H](O[C@@H]2O[C@H](C)[C@@H](O)[C@H](N)[C@@H]2O)C[C@@H]2O[C@](O)(C[C@@H](O)C[C@@H](O)[C@H](O)CC[C@@H](O)C[C@@H](O)CC(=O)O[C@H]1C)C[C@H](O)[C@H]2C(=O)O` [Amphotericin B], for which the entries for the “Zone of Inhibition” value in experiment [7], in [8] and in experiment [9] were 27.0, 25.7 and 23.0, respectively.
As to Gentamycin, the “Zone of Inhibition” value stood at 26.4 in experiment [10], 25.2 in experiment [11] and 23.4 in [12].
